Measurements as given in patent US5733904A, “Method for prevention and treatment of viral infectious diseases for viral suppression” (priority 1996, dated 1998).

Experiments:
[1] = system: HIV-1; experiment: Comparison of suppressive activity of HIV proliferation with FAS and other anti-HIV drugs (syncytium formation); format: cell-based; settings: for IC50: Human immunodeficiency virus 1, FIG. 5, approximate, read-out: 50% inhibitory concentration, syncytium formation
Description: Comparison of suppressive activity of HIV proliferation with FAS and other anti-HIV drugs.
Experiments were conducted by the same method as in Example 3.
The medicaments used in this experiment were compounds of the present invention (FAS, and a compound of formula [I] where R^1 is hydroxy as in the above-mentioned Japanese Patent Unexamined Publication No. 61-152658), ddI (Sigma Corp.) and AZT (Sigma Corp.) which are used as medicaments for the treatment of AIDS, and dextran sulfate (Sigma Corp.).

[2] = system: rabbit plasma; experiment: Blood coagulation time (APTT, PT); parameters: species or system rabbit (male, Japanese white); settings: for PT / APTT: N=4, mean ± S.E.; for PT: control 5.8 ± 0.1; for APTT: control 21.2 ± 0.5
Description: a) Blood coagulation time:
Rabbits (male, Japanese white, body weight 2-3 kg, Oriental Yeast Co.) were used. […] After adding the test compound to the resultant plasma, activated partial thromboplastin time (APTT) and prothrombin time (PT) were measured by using a coagulometer (Coagtec, Coagtec TE600, EMRA; KC-10A, Baxter).

[3] = system: HIV-1 (LAV-1 strain) in MOLT-4 cells; experiment: Inhibitory activity of HIV syncytia formation: HIV-1 acute-phase infection; format: cell-based; settings: for inhibition at 30 µM: Human immunodeficiency virus 1, MOLT-4, in concentrations of 30 μM, 48 hours; for inhibitory effects on syncytia formation: in concentrations of 2.0 μM
Description: a) Activity of the medicament on HIV-1 acute-phase infection:
Cells obtained by culturing MOLT-4 (American Type Culture Collection ATCC CRL-1582) in RPMI medium (GIBCO Corp.) containing 10% FBS (fetal bovine serum: GIBCO Corp.) (culture condition: 37° C., 5% CO2 /95% air) were prepared to aliquot number of cells (1×10^5 cells/50 μl). The cell suspension, 50 μl and the liquid preparation, 50 μl containing HIV-1 (LAV-1 strain, Wain-Hobson et al., Cell 40: 9-17, 1985) in RPMI medium with 10% FBS were put into each well of a 96 hole microplate and cultured for 48 hours (Infectious condition of MOLT-4 and HIV-1: M.O.I.=4.0).
Each compound was dissolved in RPMI medium containing 10% FBS at the final concentration as shown in FIG. 1 to prepare the medicament solution. The medicament solution, 100 μl was added to the mixture of MOLT-4 cell preparation and HIV-1 preparation at the time of mixing with MOLT-4 and HIV-1 to prepare the final volume of the liquid, 200 μl. The number of formed syncytia were microscopically counted.
Tested compounds were: FAS (fasudil hydrochloride, Chem. Pharm. Bull., 40 (3), 770-773, (1992)), C kinase inhibitor H-7 (1-5-isoquinolinylsulfonyl)-2-methyl-piperazine, Sigma Corp.), and calmodulin kinase II inhibitor KN-62 (1-(N,O-bis-[5-isoquinolinylsulfonyl]-N-methyl-L-tyrosyl)-4-phenyl-piperazine, Sigma Corp., Neuroscience Lett., 129, 47 (1991)) .
The control group without the compound was prepared by replacing the medicament solution, 100 μl.
Syncytium formation activity was calculated by comparing the syncytia formation in the test group to that of the control group in the following equation.
Syncytium formation activity=number of syncytia formed in the medicament-added group/number of syncytia formed in the no-medicament-added group.

[4] = system: Env (gp120) protein, HIV-1 infected MOLT-4 cells; experiment: Suppressive action on expression of Env (gp120) protein on the surface of cells; format: cell-based; settings: FIG. 3; Env positive cells after 5 days
Description: (Suppressive action on expression of Env (gp120) protein on the surface of cells.)
Cells obtained by culturing MOLT-4 (culture condition: 37° C., 5% CO2 /95% air, RPMI medium (GIBCO Corp.) containing 10% FBS) were adjusted to a preferable number of cells (1×10^5 cells/50 μl ). The cell suspension, 50 μl, (infected with MOLT-4 and HIV-1: M.O.I.=1.0) was put in a 96 hole microplate and cultured for 1 hour to infect the cells.
A solution of the compound shown below, 100 μl, was added in each well and cultured for 5 days. The cultured solution was transferred into a plastic tube (Eppendorf Corp.) and centrifuged to collect the cells. The cells were treated with mouse anti-Env gp120 monoclonal antibody (Replingen Inc.) as a primary antibody and FITC (Fluorescein Isothiocyanate) labelled goat anti-mouse IgG (Cappel Corp.) as a secondary antibody to fluoresce. The number of fluorescent cells was fluoroscopically calculated by counting fluorescent cells according to an indirect fluorescent antibody technique (Techniques in HIV Research, Ed. A. Aldoriny and B. D. Walker, Stokton Press, New York, 1990).
Env positive cells (%) was calculated by the following equation:
Env positive cells (%)=(FITC) positive cells/total cells)×100
Compounds: FAS, H-7 and KN-62.
Control: solution without compound was used.

[5] = system: HIV-1 (LAV-1) persistently infected MOLT-4 cells with non-infected MOLT-4 cells; experiment: Inhibitory activity of HIV syncytia formation: HIV-1 chronic-phase infection; format: cell-based; settings: FIG. 2; 48 hours
Description: b) Activity of the medicament on HIV-1 chronic-phase infection:
Cells obtained by culturing MOLT-4 (culture condition: 37° C., 5% CO2 /95% air, RPMI medium (GIBCO Corp.) containing 10% FBS) were adjusted to a preferable number of cells (1×10^5 cells/50 μl). HIV-1 (LAV-1) preparation, 50 μl was added to the cell suspension, 50 μl and subjected to a mixing culture (infectious condition of HIV-1 to MOLT-4: M.O.I.=1). The infected cell mixture was cultured by exchanging a fresh culture medium every 3 days at a volume rate of 2:5. The culture was continued for more than 1 month to prepare persistent infected cells. The concentration of the persistent infected cells was adjusted to a preferable number of cells (1×10^5 cells/50 μl ) (the persistent infected cell preparation).
Cell preparation without infection was prepared by culturing MOLT-4 (culture condition: 37° C., 5% CO2 /95% air, RPMI medium (GIBCO Corp.) containing 10% FBS) and adjusting the concentration to a preferable number of cells (1×10^5 cells/50 μl).
The persistent infected cell preparation, 50 μl, was placed in the wells of a 96 hole microplate and the non-infected cell preparation, 50 μl, was added therein and cultured for 48 hours. Numbers of the formed syncytia were counted microscopically.
Each compound solution tested was added, 100 μl, at the time of mixing the persistent infected cell preparation with the non-infected cell preparation, to provide the final concentrations shown in FIG. 2 (medicament added test group).
The no-medicament-added group (control group) was prepared by replacing the compound solution, 100 μl.

[6] = Acute toxicity in mice; parameters: species or system mouse (Slc: ddy, 5 weeks); settings: mouse, in vivo, iv, i. v., male
Description: Acute toxicity of the compounds of the present invention were conducted on rats and mice, and low toxicity was confirmed.

[7] = system: Herpes simplex virus type I; experiment: Inhibitory action for plaque formation of Herpes simplex virus type I; format: cell-based; settings: mean of two, control 51
Description: (§1) Experiments were performed according to a method described in Antiviral Chemistry and Chemotherapy, 5 (6), 366-371, 1994 and Experimental Virology, Ed. by NIH Japan alumni assoc., Maruzen Publ. 1982, p. 65-78 or p. 331-340.
(§2) Vero cells cultured in the medium (Dulbecco's modified MEM added with 10% FBS) were detached by trypsin (Sigma Corp.). The detached cells were suspended by 2×10^5 cells/ml in the same medium, and placed in the wells of a 48 hole plate. The plate was incubated at 37° C. under 5% CO2 for about one day to complete a full-sheet of the cells in all wells. After incubation, cultured supernatant was removed. A solution (50 μl) containing the compound diluted with 4-fold stepwise dilution by virus culture medium (MM: Dulbecco's modified MEM added with 2% FBS), was added thereto.
(§3) A viral solution, 50 μl, in which the number of virus (parainfluenza virus or Herpes simplex virus type I) was adjusted to about 50 pfu (plaque forming unit)/50 μl by MM, was added to each well. MM 400 μl containing 1% methylcellulose was added in each well to provide a compound-added test group. A control group was prepared by adding the viral culture medium without adding the test compound.
(§4) The groups were incubated at 37° C. under 5% CO2 for three days to form plaques and the number of plaques in each well was counted.
(§5) The test compounds were FAS, and the compound of formula [I] where R^1 is hydroxy. The final concentration of the compound in the solution was set to 100, 25, 6.3 and 1.6 μg/ml, respectively. Each test group included 2 wells and a mean of the plaque numbers was obtained.

[8] = system: rabbit platelets; experiment: Platelet aggregation; format: cell-based, rabbit (male, Japanese white); settings: for Platelet aggregation rate, ADP: ADP 5 μM, control 66.3 ± 1.4; for Platelet aggregation rate, ADP / Platelet aggregation rate, Collagen: N=4, mean ± S.E.; for Platelet aggregation rate, Collagen: collagen 5 μg/ml, control 82.3 ± 1.6
Description: Rabbits (male, Japanese white, body weight 2-3 kg, Oriental Yeast Co.) were used. Blood was collected from an ear vein, a 1/10 volume of 3.8% sodium citrate was added thereto, and the mixture was centrifuged at 1,000 rpm for 10 minutes.
The supernatant separated by this action was designated platelet rich plasma (PRP), and the precipitate was further centrifuged at 3,000 rpm for 10 minutes to obtain a further supernatant, which was designated platelet poor plasma (PPP).
The number of platelets in the PRP was adjusted to 3×10^5 plate/μl by adding the PPP. A test sample was added to the PRP. After 1 minute, a prepared aqueous solution of ADP (adenosine diphosphate, Sigma Corp.) was added at the final concentration of 5 μM, or an aqueous solution of collagen (Sigma Corp.) was added at the final concentration of 5 μg/ml. The agglutination reaction was measured by using an agglico meter (NBS HEMA TRACER VI). The inhibition rate was calculated by comparing the maximum optical transmittance in samples with the compound to the maximum optical transmittance in samples with a physiological saline.
The compounds used were compounds of the present invention (FAS, and the compound of formula [I] where R^1 is hydroxy (Japanese Patent Unexamined Publication No. 61-152658) and adenosine (Sigma Corp.).

[9] = system: parainfluenza virus; experiment: Inhibitory action for plaque formation of parainfluenza virus; format: cell-based; settings: mean of two, control 51.5
Description: as §1, §2, §3, §4, §5

[10] = system: HIV; settings: Antiviral Res., 22: 273-283, 1993; cited from earlier work

Work on `Cc1cn([C@H]2C[C@H](N=[N+]=[N-])[C@@H](CO)O2)c(=O)[nH]c1=O` [AZT, 3'-azido-3'-deoxythymidine] yielded an IC50 [1] of about 50 µM.
With Heparin the “effect on blood coagulation time (APTT, PT)” value [2] was “clearly extended APTT and PT”.
With `CN([C@@H](Cc1ccc(OS(=O)(=O)c2cccc3cnccc23)cc1)C(=O)N1CCN(c2ccccc2)CC1)S(=O)(=O)c1cccc2cnccc12` [KN-62, 1-(N,O-bis-[5-isoquinolinylsulfonyl]-N-methyl-L-tyrosyl)-4-phenyl-piperazine] the inhibition at 30 µM [3] was about 75%, the “inhibitory effects on syncytia formation” value [3] was “no inhibitory effects were observed” and the “inhibitory activity for Env expression” value [4] was “weak inhibitory activity for Env expression”. The “inhibitory activity for syncytium formation” value [5] was “no inhibitory activity for syncytium formation”.
With `O=S(=O)(c1cccc2c(O)nccc12)N1CCCNCC1` [Compound of the formula [I] (R^1 = OH)] the LD50 [6] was 119 mg/kg, the “Plaque No.” value ([7]; 1.6 μg/ml) was 51 and the “Plaque No.” value ([7]; 6.3 μg/ml) was 51. The “Plaque No.” value ([7]; 25 μg/ml) was 56, the “Plaque No.” value ([7]; 100 μg/ml) was 37.5 and the “effect on blood coagulation time (APTT, PT)” value [2] was “no effect on blood coagulation time”. It also gave a PT ([2]; 30 μM) of 5.6 ± 0.1 s, an APTT ([2]; 30 μM) of 20.2 ± 0.4 s and a PT ([2]; 100 μM) of 5.5 ± 0.1 s. The APTT ([2]; 100 μM) was 20.1 ± 0.4 s, the “Platelet aggregation rate, ADP” value ([8]; 10 μM) was 63.0 ± 2.3% and the “Platelet aggregation rate, Collagen” value ([8]; 10 μM) was 80.0 ± 1.7%. The “Platelet aggregation rate, ADP” value ([8]; 30 μM) was 63.8 ± 2.9%, the “Platelet aggregation rate, Collagen” value ([8]; 30 μM) was 79.3 ± 1.1% and the “Platelet aggregation rate, ADP” value ([8]; 100 μM) was 64.3 ± 3.8%. The “Platelet aggregation rate, Collagen” value ([8]; 100 μM) was 81.0 ± 1.2%, the “inhibitory activity of syncytium formation of HIV-1” value [1] was “inhibited the formation of syncytium of HIV-1” and the “Plaque No.” value ([9]; 25 μg/ml) was 59. For the same molecule, the “Plaque No.” value ([9]; 100 μg/ml) was 4.5.
With `Nc1ncnc2c1ncn2[C@@H]1O[C@H](CO)[C@@H](O)[C@H]1O` [Adenosine, adenosine] the “effect on ADP coagulation and collagen coagulation” value [8] was “suppressed ADP coagulation and collagen coagulation”.
`OC[C@@H]1CC[C@H](n2cnc3c(O)ncnc32)O1` [ddI, 2', 3'-dideoxyinosine] showed an IC50 [1] of about 100 µM.
In the case of `CC1CNCCN1S(=O)(=O)c1cccc2cnccc12` (centres unmarked) [H-7, 1-(5-isoquinoryl-sulfonyl)-2-methyl-piperazine], the “effectiveness against HIV infectious disease” value [10] is given as “has not been found to be clearly effective”, the inhibition at 30 µM [3] is given as about 50% and the “inhibitory effects on syncytia formation” value [3] is given as “no inhibitory effects were observed”. The “inhibitory activity for Env expression” value [4] was “no significant inhibitory activity for Env expression” and the “inhibitory activity for syncytium formation” value [5] was “no inhibitory activity for syncytium formation”.
